# From US20110003776A1, “[…] DERIVATIVES, PHARMACEUTICAL COMPOSITIONS AND THERAPEUTIC TREATMENT THEREOF” (TRUSTEES OF BOSTON UNIVERSITY, priority 2009, published 2011)
# System: Mycobacterium tuberculosis
# Assay: microplate Alamar Blue assay (MABA) against Mycobacterium tuberculosis
# Format: cell-based
# Conditions: MIC and IC50 values only in Scheme 5
# Source text: The skilled artisan is well aware of the methods for measuring growth of mycobacteria. A common method of detecting growth in mycobacterial cultures involves the use of […]. An exemplary method is the microplate Alamar Blue assay (MABA), described in Falzari, et al., Antimicrob. Agents Chemother. 2005, 49, 1447-1454 (2005), content of which is herein incorporated by reference.
# The library compounds of ureas 7, amides 8, and sulfonamides 9 were screened for activity against Mycobacterium tuberculosis using the microplate Alamar Blue assay (MABA), described in Falzari, et al., Antimicrob. Agents Chemother. 2005, 49, 1447-1454 (2005), content of which is herein incorporated by reference. The MIC values were established after initial positive hits were identified (>80% inhibition at 10 μg/mL). Cytotoxicity assays were performed on Vero cells with IC50 values greater than 50 μg/mL under the assay conditions. Activities were subsequently validated in duplicate assays with resynthesized compound.
row,SMILES,activity against Mycobacterium tuberculosis
1,"COc1ccc(-c2nc3c(c4c2C[C@H](c2ccccc2)OC4)CN(C(=O)N[C@H](C)c2ccccc2)CC3)c(C)c1 [7{4,1}]",significant activities
2,"COc1ccc(NC(=O)N2CCc3nc(-c4ccc(OC)cc4C)c4c(c3C2)CO[C@@H](c2ccccc2)C4)cc1 [7{4,2}, (R)-6-(4-Methoxy-2-methylphenyl)-N-(4-methoxyphenyl)-8-phenyl-3,4,7,8-tetrahydro-1H-pyrano[4,3-c][1,6]naphthyridine-2(10H)-carboxamide]",significant activities
3,"COc1ccc(-c2nc3c(c4c2C[C@H](c2ccccc2)OC4)CN(S(=O)(=O)c2ccc(C#N)cc2)CC3)c(C)c1 [9{4,4}]",significant activities
